Source: patent US11638427B2, “Methods and compositions for altering secondary metabolites in plants” (Impello Biosciences, Inc, priority 2020, dated 2023)
“And” between values parts separate entries of the source, which are not always exact repeats. Identical values can stand only once.

System: CBDRx Cherry hemp clones
Experiment: Foliar spray of MS, MDJ and MS+MDJ on hemp clones: biomass, cannabinoid and terpene analysis
Type: in vivo, Cannabis spp.
Design: CBDA / CBD / THCA / Total CBG / Total cannabinoids: unit not given here
Settings: for plants died before the end of the experiment: four plants per treatment group
Description: Methyl salicylate (MS) is an antagonistic compound to the jasmonates. To investigate the effect of MS alone and in conjunction with MDJ, MS (CAS No.: 119-36-8), MDJ, and the combination (MS+MDJ) were applied by foliar spray to CBDRx Cherry hemp clones once per week during both vegetative and flowering phases. Plants were transplanted into 1-gallon pots with Red's soil and put into vegetative light cycle (18L/6D). […] Plants were grown under a total of 12 Boost (Thrive Agritech, NY) 130-watt LED lights set to 18L: 6D photoperiod during the vegetative phase (2 weeks) and this was followed by a 12L: 12D photoperiod during the flowering phase (7 weeks), using the same lighting fixtures. Throughout the nine weeks, all plants were watered when needed with Jack's nutrients.
MS or MDJ treatments were applied at the following concentrations: [1 mM], [4.25 mM], [7.5 mM] and [10 mM]. Each concentration was prepared from a one molar stock solution diluted with RO water and TWEEN®-20 (1M stock) was added. Each plant was sprayed till dripping, which was approximately 50-75 ml. To apply the combination of the two biochemicals, MS and MDJ were sprayed separately but simultaneously, to ensure each compound was applied evenly onto the plant. Each compound was applied using a SPRAYMASTER Chemical Sprayer (King of Prussia, Pa.).
Plants were harvested two months after transplant. After harvesting, plants were air dried at room temperature for two weeks. Once plants were sufficiently dry, above ground dry weights were recorded and dried flower samples were collected and sent to a third-party lab for terpene and cannabinoid analysis. Two plants (#3 and #4) in treatment group MDJ [7.5] mM, two plants (#3 and #4) in MS [4.25] mM, one plant (#4) in MS [7.5], and one plant (#4) in MDJ [10] died before the end of the experiment.

[1] = 1 mM foliar spray, Avg. of group
[2] = 1 mM foliar spray, individual plant
[3] = 4.25 mM foliar spray, Avg. of group
[4] = 4.25 mM foliar spray, individual plant
[5] = 7.5 mM foliar spray, Avg. of group
[6] = 7.5 mM foliar spray, individual plant
[7] = 10 mM foliar spray, Avg. of group
[8] = 10 mM foliar spray, individual plant

CCCCCC1C(=O)CCC1CC(=O)OC (centres unmarked) [MDJ, methyl dihydrojasmonate]
Alpha-bisabolol [1]: 0.109 % wt/wt | Alpha-humulene [1]: 0.08163 % wt/wt | Beta-caryophyllene [1]: 0.2027 % wt/wt | CBCA [1]: 0.64 | CBD [1]: 0.105 | CBDA [1]: 12.99 | CBGA [1]: 0.3425 | Limonene [1]: 0.1362 % wt/wt | THCA [1]: 0.565 | Total CBD [1]: 11.4975 | Total CBG [1]: 4.2075 | Total cannabinoids [1]: 14.6425 | Total d9THC [1]: 0.495 | alpha-pinene [1]: 0.02277 % wt/wt | beta-myrcene [1]: 1.04 % wt/wt | beta-pinene [1]: 0.0188 % wt/wt | total terpenes [1]: 1.7075 % wt/wt | Alpha-bisabolol [2]: 0.1238 % wt/wt and 0.1069 % wt/wt and 0.094 % wt/wt and 0.1113 % wt/wt | Alpha-humulene [2]: 0.0944 % wt/wt and 0.0784 % wt/wt and 0.0831 % wt/wt and 0.0706 % wt/wt | Beta-caryophyllene [2]: 0.2352 % wt/wt and 0.2003 % wt/wt and 0.2076 % wt/wt and 0.1676 % wt/wt | CBCA [2]: 0.57 and 0.71 and 0.64 (2×) | CBD [2]: 0.16 and 0 and 0.12 and 0.14 | CBDA [2]: 11.86 and 14.25 and 13.12 and 12.73 | CBGA [2]: 0.28 and 0.44 and 0.34 and 0.31 | Limonene [2]: 0.1352 % wt/wt and 0.1309 % wt/wt and 0.1572 % wt/wt and 0.1215 % wt/wt | THCA [2]: 0.52 and 0.63 and 0.57 and 0.54 | Total CBD [2]: 10.55 and 12.5 and 11.63 and 11.31 | Total CBG [2]: 0.24 and 16.03 and 0.29 and 0.27 | Total cannabinoids [2]: 13.39 and 16.03 and 14.79 and 14.36 | Total d9THC [2]: 0.45 and 0.55 and 0.5 and 0.48 | alpha-pinene [2]: 0.0293 % wt/wt and 0.0283 % wt/wt and 0.0335 % wt/wt and 0 % wt/wt | beta-myrcene [2]: 0.9825 % wt/wt and 1.0146 % wt/wt and 1.2146 % wt/wt and 0.9497 % wt/wt | beta-pinene [2]: 0.0269 % wt/wt and 0.0238 % wt/wt and 0.0245 % wt/wt and 0 % wt/wt | total terpenes [2]: 1.73 % wt/wt and 1.67 % wt/wt and 1.92 % wt/wt and 1.51 % wt/wt | Alpha-bisabolol [3]: 0.1242 % wt/wt | Alpha-humulene [3]: 0.0859 % wt/wt | Beta-caryophyllene [3]: 0.2106 % wt/wt | CBCA [3]: 0.6275 | CBD [3]: 0.29 | CBDA [3]: 12.9825 | CBGA [3]: 0.2975 | Limonene [3]: 0.1168 % wt/wt | THCA [3]: 0.565 | Total CBD [3]: 11.6725 | Total CBG [3]: 0.2625 | Total cannabinoids [3]: 14.7625 | Total d9THC [3]: 0.495 | alpha-pinene [3]: 0.0132 % wt/wt | beta-myrcene [3]: 0.9189 % wt/wt | beta-pinene [3]: 0.02055 % wt/wt | total terpenes [3]: 1.5875 % wt/wt | Alpha-bisabolol [4]: 0.1239 % wt/wt and 0.1229 % wt/wt and 0.1255 % wt/wt and 0.1245 % wt/wt | Alpha-humulene [4]: 0.0851 % wt/wt and 0.0781 % wt/wt and 0.0861 % wt/wt and 0.0943 % wt/wt | Beta-caryophyllene [4]: 0.2071 % wt/wt and 0.1897 % wt/wt and 0.208 % wt/wt and 0.2377 % wt/wt | CBCA [4]: 0.63 (2×) and 0.65 and 0.6 | CBD [4]: 0.28 and 0.36 and 0.38 and 0.14 | CBDA [4]: 13.17 (2×) and 12.87 and 12.72 | CBGA [4]: 0.33 and 0.31 and 0.26 and 0.29 | Limonene [4]: 0.1049 % wt/wt and 0.1307 % wt/wt and 0.0983 % wt/wt and 0.1334 % wt/wt | THCA [4]: 0.57 (2×) and 0.56 (2×) | Total CBD [4]: 11.83 and 11.9 and 11.67 and 11.29 | Total CBG [4]: 0.29 and 0.27 and 0.23 and 0.26 | Total cannabinoids [4]: 14.98 and 15.06 and 14.7 and 14.31 | Total d9THC [4]: 0.5 (2×) and 0.49 (2×) | alpha-pinene [4]: 0 % wt/wt (2×) and 0.0253 % wt/wt and 0.0275 % wt/wt | beta-myrcene [4]: 0.8032 % wt/wt and 1.0724 % wt/wt and 0.7447 % wt/wt and 1.0552 % wt/wt | beta-pinene [4]: 0.0189 % wt/wt and 0.021 % wt/wt and 0.019 % wt/wt and 0.0233 % wt/wt | total terpenes [4]: 1.44 % wt/wt and 1.73 % wt/wt and 1.38 % wt/wt and 1.8 % wt/wt | Alpha-bisabolol [5]: 0.112 % wt/wt | Alpha-humulene [5]: 0.08165 % wt/wt | Beta-caryophyllene [5]: 0.2043 % wt/wt | CBCA [5]: 0.675 | CBD [5]: 0.125 | CBDA [5]: 13.16 | CBGA [5]: 0.365 | Limonene [5]: 0.09595 % wt/wt | THCA [5]: 0.575 | Total CBD [5]: 11.665 | Total CBG [5]: 0.315 | Total cannabinoids [5]: 14.9 | Total d9THC [5]: 0.505 | alpha-pinene [5]: 0 % wt/wt | beta-myrcene [5]: 0.7442 % wt/wt | beta-pinene [5]: 0.01015 % wt/wt | total terpenes [5]: 1.345 % wt/wt | plants died before the end of the experiment (7.5 mM foliar spray): Two plants | Alpha-bisabolol [6]: 0.1165 % wt/wt and 0.1076 % wt/wt | Alpha-humulene [6]: 0.0802 % wt/wt and 0.0831 % wt/wt | Beta-caryophyllene [6]: 0.2 % wt/wt and 0.2086 % wt/wt | CBCA [6]: 0.63 and 0.72 | CBD [6]: 0.14 and 0.11 | CBDA [6]: 12.43 and 13.89 | CBGA [6]: 0.36 and 0.37 | Limonene [6]: 0.0965 % wt/wt and 0.0954 % wt/wt | THCA [6]: 0.53 and 0.62 | Total CBD [6]: 11.04 and 12.29 | Total CBG [6]: 0.31 and 0.32 | Total cannabinoids [6]: 14.09 and 15.71 | Total d9THC [6]: 0.47 and 0.54 | alpha-pinene [6]: 0 % wt/wt | beta-myrcene [6]: 0.7818 % wt/wt and 0.7066 % wt/wt | beta-pinene [6]: 0.0203 % wt/wt and 0 % wt/wt | total terpenes [6]: 1.39 % wt/wt and 1.3 % wt/wt | Alpha-bisabolol [7]: 1.477 % wt/wt | Alpha-humulene [7]: 0.1323 % wt/wt | Beta-caryophyllene [7]: 0.0874 % wt/wt | CBCA [7]: 0.643 | CBD [7]: 0.24 | CBDA [7]: 12.936 | CBGA [7]: 0.33 | Limonene [7]: 0.2188 % wt/wt | THCA [7]: 0.56 | Total CBD [7]: 11.58 | Total CBG [7]: 0.29 | Total cannabinoids [7]: 14.71 | Total d9THC [7]: 0.493 | alpha-pinene [7]: 0.023 % wt/wt | beta-myrcene [7]: 0.1067 % wt/wt | beta-pinene [7]: 0.8058 % wt/wt | total terpenes [7]: 0.023 % wt/wt | plants died before the end of the experiment (10 mM foliar spray): one plant | Alpha-bisabolol [8]: 0.1507 % wt/wt and 0.143 % wt/wt and 0.1033 % wt/wt | Alpha-humulene [8]: 0.0955 % wt/wt and 0.0751 % wt/wt and 0.0916 % wt/wt | Beta-caryophyllene [8]: 0.2372 % wt/wt and 0.1978 % wt/wt and 0.2214 % wt/wt | CBCA [8]: 0.62 and 0.71 and 0.6 | CBD [8]: 0.18 and 0.34 and 0.2 | CBDA [8]: 12.76 and 14.33 and 11.72 | CBGA [8]: 0.26 and 0.41 and 0.32 | Limonene [8]: 0.1165 % wt/wt and 0.0884 % wt/wt and 0.1154 % wt/wt | THCA [8]: 0.56 and 0.62 and 0.5 | Total CBD [8]: 11.36 and 12.9 and 10.48 | Total CBG [8]: 0.23 and 0.36 and 0.28 | Total cannabinoids [8]: 14.38 and 16.41 and 13.34 | Total d9THC [8]: 0.49 and 0.55 and 0.44 | alpha-pinene [8]: 0 % wt/wt | beta-myrcene [8]: 0.8838 % wt/wt and 0.6844 % wt/wt and 0.8492 % wt/wt | beta-pinene [8]: 0.0249 % wt/wt and 0.0217 % wt/wt and 0.0224 % wt/wt | total terpenes [8]: 1.62 % wt/wt and 1.3 % wt/wt and 1.51 % wt/wt | plant growth effects on clonal hemp plants in the vegetative stage (all concentrations (1-10 mM), compared to all tested concentrations of MS): beneficial plant growth effects | total terpene content (application of 1 mM or 4.25 mM): increased
